Assay results as given in patent publication US9593305B2, “Differentiation of pluripotent stem cells” (Janssen Biotech, Inc., priority 2008, dated 2017).

System: H1 human embryonic stem cells
Assay: Single-cell monolayer assay with EGF/FGF4, serum free, no activin A (Example 10, Table 10)
Assay type: cell-based
Protocol: Briefly, clusters of H1 human embryonic stem cells were grown on reduced growth factor […]™ (Invitrogen; Cat #356231)-coated tissue culture plastic. Cultures were treated with Accutase (Sigma; Cat #A6964), using equivalent volumes of […] surface area for 5 minutes at 37° C., then gently resuspended, pelleted by centrifugation, and resuspended in MEF conditioned medium for counting. For assay seeding, cells were plated at 50,000 cells/cm^2 on reduced growth factor […]™-coated 96-well black plates (Packard ViewPlates; Cat #6005182) using volumes of 100 μl/well. Cells were allowed to attach and recover log phase growth over a 3 to 5 day period, feeding daily with MEF conditioned medium supplemented with 8 ng/ml bFGF (R&D Systems; Cat #233-FB). Plates were maintained at 37° C., 5% CO2 in a humidified box throughout the duration of assay.
Stocks of EGF and FGF4 were prepared in a 96-well polypropylene plate (Corning, Inc.; Cat #3960). Compound 22 was available as a 5 mM stock solubilized in 100% DMSO (Sigma; Cat #D2650) and stored at −80° C. Assays were initiated by aspirating culture medium from each well followed by three washes in PBS to remove residual growth factors and serum. […]
On the second day of assay, wells were again aspirated and fed with 80 μl per well were added back containing RPMI 1640 base medium supplemented with 2.5% fatty acid free BSA, 10 ng/ml bFGF, and 3.125 μM Compound 22 plus 20 μl 5× stock of growth factors to yield a final concentration of 2% fatty acid free BSA, 8 ng/ml bFGF and 2.5 μM Compound 22 in assay. Positive control wells contained the same base medium supplemented with 2% fatty acid free BSA, 8 ng/ml bFGF and 100 ng/ml recombinant human activin A. Negative control samples contained the same base medium supplemented with 2% fatty acid free BSA and 8 ng/ml bFGF but omitted treatment with activin A.
At the conclusion of four-days of culture, assay plates were washed twice with PBS, fixed with 4% paraformaldehyde (Alexis Biochemical; Cat #ALX-350-011) at room temperature for 20 minutes, then washed three times with PBS and permeabilized with 0.5% Triton X-100 (Sigma; Cat #T8760-2) for 20 minutes at room temperature. Cells were washed again three times with PBS and blocked with 4% chicken serum (Invitrogen; Cat #16110082) in PBS for 30 minutes at room temperature. Primary antibody (goat anti-human SOX17; R&D Systems; cat #AF1924) was diluted 1:100 in 4% chicken serum and added to each well for one hour at room temperature. Alexa Fluor 488 conjugated secondary antibody (chicken anti-goat IgG; Molecular Probes; Cat #AZ1467) was diluted 1:200 in PBS and added to each sample well after washing three times with PBS. To counterstain nuclei, 4 μg/ml Hoechst 33342 (Invitrogen; Cat #H3570) was added for ten minutes at room temperature. Plates were washed once with PBS and left in 100 μl/well PBS for imaging.
Imaging was performed using an IN Cell Analyzer 1000 (GE Healthcare) utilizing the 51008bs dichroic for cells stained with Hoechst 33342 and Alexa Fluor 488. Exposure times were optimized from positive control wells and from untreated negative control wells stained with secondary antibody alone. Images from 15 fields per well were acquired to compensate for any cell loss during the bioassay and subsequent staining procedures. Measurements for total cell number and total SOX17 intensity were obtained from each well using IN Cell Developer Toolbox 1.7 (GE Healthcare) software. Segmentation for the nuclei was determined based on gray-scale levels (baseline range 100-300) and nuclear size. Averages and standard deviations were calculated for each replicate data set. Total SOX17 protein expression was reported as total intensity or integrated intensity, defined as total fluorescence of the cell multiplied by the area of the cell. Background was eliminated based on acceptance criteria of gray-scale ranges between 200 to 3500. […]

[1] = No AA (with Wnt3a), FGF none, EGF none
[2] = No AA (with Wnt3a), FGF none, EGF(25 ng/ml)
[3] = No AA (with Wnt3a), FGF none, EGF(50 ng/ml)
[4] = No AA (with Wnt3a), FGF none, EGF(100 ng/ml)
[5] = No AA (with Wnt3a), FGF(25 ng/ml), EGF none
[6] = No AA (with Wnt3a), FGF(25 ng/ml), EGF(25 ng/ml)
[7] = No AA (with Wnt3a), FGF(25 ng/ml), EGF(50 ng/ml)
[8] = No AA (with Wnt3a), FGF(25 ng/ml), EGF(100 ng/ml)
[9] = No AA (with Wnt3a), FGF(50 ng/ml), EGF none
[10] = No AA (with Wnt3a), FGF(50 ng/ml), EGF(25 ng/ml)
[11] = No AA (with Wnt3a), FGF(50 ng/ml), EGF(50 ng/ml)
[12] = No AA (with Wnt3a), FGF(50 ng/ml), EGF(100 ng/ml)
[13] = No AA (with Wnt3a), FGF(100 ng/ml), EGF none
[14] = No AA (with Wnt3a), FGF(100 ng/ml), EGF(25 ng/ml)
[15] = No AA (with Wnt3a), FGF(100 ng/ml), EGF(50 ng/ml)
[16] = No AA (with Wnt3a), FGF(100 ng/ml), EGF(100 ng/ml)
[17] = No AA (without Wnt3a), FGF(50 ng/ml), EGF(50 ng/ml)
[18] = No AA (without Wnt3a), FGF(50 ng/ml), EGF(100 ng/ml)
[19] = No AA (without Wnt3a), FGF(100 ng/ml), EGF(50 ng/ml)
[20] = No AA (without Wnt3a), FGF(100 ng/ml), EGF(100 ng/ml)
[21] = Activin A (with Wnt3a), positive control

## O=C1CCN2CCN(CC2)Cc2cc(Cl)cc(c2)Nc2ncnc(n2)-c2cncc(c2)CCCN1 [Compound 34, 5-Chloro-1,8,10,12,16,22,26,32-octaazapentacyclo[24.2.2.1˜3.7˜0.1˜9,13˜0.1˜14.18˜]tritriaconta-3(33), 4,6,9(32), 10,12,14(31), 15,17-nonaen-23-one]
[1]
  Cell Number, % of positive control: 92.38%
  Cell Number, Average Total Cell Number: 11711
  Sox17 Expression, % of positive control: 60.68%
  Sox17 Expression, Average Total Intensity: 1.65E+08
[2]
  Cell Number, % of positive control: 126.63%
  Cell Number, Average Total Cell Number: 16052
  Sox17 Expression, % of positive control: 78.82%
  Sox17 Expression, Average Total Intensity: 2.14E+08
[3]
  Cell Number, % of positive control: 107.23%
  Cell Number, Average Total Cell Number: 13593
  Sox17 Expression, % of positive control: 71.52%
  Sox17 Expression, Average Total Intensity: 1.94E+08
[4]
  Cell Number, % of positive control: 103.90%
  Cell Number, Average Total Cell Number: 13170
  Sox17 Expression, % of positive control: 71.04%
  Sox17 Expression, Average Total Intensity: 1.93E+08
[5]
  Cell Number, % of positive control: 145.41%
  Cell Number, Average Total Cell Number: 18433
  Sox17 Expression, % of positive control: 91.72%
  Sox17 Expression, Average Total Intensity: 2.49E+08
[6]
  Cell Number, % of positive control: 148.63%
  Cell Number, Average Total Cell Number: 18841
  Sox17 Expression, % of positive control: 95.72%
  Sox17 Expression, Average Total Intensity: 2.60E+08
[7]
  Cell Number, % of positive control: 128.05%
  Cell Number, Average Total Cell Number: 16232
  Sox17 Expression, % of positive control: 84.79%
  Sox17 Expression, Average Total Intensity: 2.30E+08
[8]
  Cell Number, % of positive control: 73.44%
  Cell Number, Average Total Cell Number: 9309
  Sox17 Expression, % of positive control: 51.00%
  Sox17 Expression, Average Total Intensity: 1.39E+08
[9]
  Cell Number, % of positive control: 100.64%
  Cell Number, Average Total Cell Number: 12757
  Sox17 Expression, % of positive control: 61.10%
  Sox17 Expression, Average Total Intensity: 1.66E+08
[10]
  Cell Number, % of positive control: 139.79%
  Cell Number, Average Total Cell Number: 17720
  Sox17 Expression, % of positive control: 85.01%
  Sox17 Expression, Average Total Intensity: 2.31E+08
[11]
  Cell Number, % of positive control: 128.83%
  Cell Number, Average Total Cell Number: 16331
  Sox17 Expression, % of positive control: 83.11%
  Sox17 Expression, Average Total Intensity: 2.26E+08
[12]
  Cell Number, % of positive control: 128.87%
  Cell Number, Average Total Cell Number: 16336
  Sox17 Expression, % of positive control: 85.24%
  Sox17 Expression, Average Total Intensity: 2.32E+08
[13]
  Cell Number, % of positive control: 156.61%
  Cell Number, Average Total Cell Number: 19853
  Sox17 Expression, % of positive control: 95.45%
  Sox17 Expression, Average Total Intensity: 2.59E+08
[14]
  Cell Number, % of positive control: 156.83%
  Cell Number, Average Total Cell Number: 19880
  Sox17 Expression, % of positive control: 95.47%
  Sox17 Expression, Average Total Intensity: 2.59E+08
[15]
  Cell Number, % of positive control: 143.30%
  Cell Number, Average Total Cell Number: 18166
  Sox17 Expression, % of positive control: 86.30%
  Sox17 Expression, Average Total Intensity: 2.35E+08
[16]
  Cell Number, % of positive control: 88.68%
  Cell Number, Average Total Cell Number: 11241
  Sox17 Expression, % of positive control: 57.10%
  Sox17 Expression, Average Total Intensity: 1.55E+08
[17]
  Cell Number, % of positive control: 105.06%
  Cell Number, Average Total Cell Number: 13317
  Sox17 Expression, % of positive control: 74.08%
  Sox17 Expression, Average Total Intensity: 2.01E+08
[18]
  Cell Number, % of positive control: 111.93%
  Cell Number, Average Total Cell Number: 14189
  Sox17 Expression, % of positive control: 73.90%
  Sox17 Expression, Average Total Intensity: 2.01E+08
[19]
  Cell Number, % of positive control: 99.52%
  Cell Number, Average Total Cell Number: 12616
  Sox17 Expression, % of positive control: 66.21%
  Sox17 Expression, Average Total Intensity: 1.80E+08
[20]
  Cell Number, % of positive control: 65.23%
  Cell Number, Average Total Cell Number: 8269
  Sox17 Expression, % of positive control: 41.73%
Compound added to EGF and/or FGF4, single cells, no activin A
  SOX17 expression: significant enhancement of SOX17 expression

## Activin A: recombinant human activin A (PeproTech), TGF-beta family member
[21]
  Cell Number, % of positive control: 100.00%
  Cell Number, Average Total Cell Number: 12676
  Sox17 Expression, % of positive control: 100.00%
  Sox17 Expression, Average Total Intensity: 2.72E+08
